The text below walks through data of patent publication US9877960B2 (priority 2012, dated 2018).

For data set [1], the system named is rats with scopolamine-induced impairment of learning. Put plainly: Radial maze test using rats with scopolamine-induced impairment of learning. The class given is in vivo, rat. To be noted: 200 mg/kg oral, scopolamine 0.5 mg/kg i.p., 8-direction radial maze. As for the experimental part:
Scopolamine is a non-selective competitive antagonist of muscarinic acetylcholine receptors. Laboratory animals with scopolamine-induced impairment of learning are widely used as a memory disorder model.
Using SD male rats which were 7 weeks of age, practice training was conducted while the rats were under food deprivation, and thereafter a main test was conducted.
Food was placed at the end of each arm of an 8-direction radial maze, and an animal was placed on a platform at the center of the maze. Completion of one trial was when the animal finished acquiring food from all arms or when 10 minutes elapsed since the animal was placed on the platform. The training was conducted once a day. “Correct choice” was defined as visiting an unselected arm in the trial, and “wrong choice” was defined as visiting an arm from where food had already been acquired.
2,5-Piperazinedione,3,6-bis(phenylmethyl)-,(3S,6S) was suspended in 0.5% CMC-Na, and 20 mg/kg and 200 mg/kg were orally administered to the rats which attained the standard in the above practice training trials. Ten minutes after the oral administration, 0.5 mg/kg of scopolamine was intraperitoneally administered. Thirty minutes after the intraperitoneal administration of scopolamine, an 8-direction radial maze test was conducted, and the number of wrong choices and the time taken for the […] to acquire all food were counted. […]

The target in another data set is AChE (Homo sapiens, UniProt P22303). Put plainly: AChE inhibitory action with MATP+ substrate. The class given is biochemical. To be noted: absorbance at 412 nm, read-out: concentration (IC50) required for 50% inhibition of AChE. As for the experimental part: The active ingredient of the agents of the present invention has AChE inhibitory action. AChE inhibitory action may be measured with MATP+ (1,1-dimethyl-4-acetylthiomethylpiperidine), which is a substrate having high selectivity for AChE (Biol Pharma Bull, 33(4), 702-706, 2010). Specifically, AChE is reacted with MATP+, and measurement is conducted using as an indicator a change in absorbance at 412 nm associated with reaction of detection reagent DNTB (5,5′-dithiobis(2-nitrobenzoic acid)).
AChE, sequence (P22303 32-614): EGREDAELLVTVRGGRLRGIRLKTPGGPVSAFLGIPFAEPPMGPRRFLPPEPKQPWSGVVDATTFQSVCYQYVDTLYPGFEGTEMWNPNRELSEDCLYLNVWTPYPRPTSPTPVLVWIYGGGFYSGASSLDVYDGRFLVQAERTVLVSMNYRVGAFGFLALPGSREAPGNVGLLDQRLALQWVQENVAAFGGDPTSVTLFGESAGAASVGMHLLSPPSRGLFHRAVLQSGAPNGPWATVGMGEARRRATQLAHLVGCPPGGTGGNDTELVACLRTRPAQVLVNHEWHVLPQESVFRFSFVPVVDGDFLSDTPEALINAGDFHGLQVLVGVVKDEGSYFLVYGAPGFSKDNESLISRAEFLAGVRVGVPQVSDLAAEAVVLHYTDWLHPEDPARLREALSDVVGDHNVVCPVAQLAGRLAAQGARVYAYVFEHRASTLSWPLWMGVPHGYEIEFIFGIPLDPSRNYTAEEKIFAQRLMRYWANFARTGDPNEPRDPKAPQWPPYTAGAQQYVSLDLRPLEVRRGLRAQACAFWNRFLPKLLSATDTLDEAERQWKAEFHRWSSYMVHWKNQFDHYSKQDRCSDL
AChE inhibitory action was measured with MATP+ (1,1-dimethyl-4-acetylthiomethylpiperidine), which is a substrate having high selectivity for AChE (Biol Pharma Bull, 33(4), 702-706, 2010). Specifically, AChE was reacted with MATP+, and measurement was conducted using as an indicator a change in absorbance at 412 nm associated with reaction of detection reagent DNTB (5,5′-dithiobis(2-nitrobenzoic acid)).

For data set [2], the system named is mice. Put plainly: Single-dose acute toxicity test. It counts as in vivo, mouse. As to conditions: 2 g/kg single dose.
Data set [3] relates to mice. As to the kind of experiment: Mice micronucleus test. The class given is in vivo.
Another data set deals with rats. The class given is in vivo. As to conditions: 28-day repeated dose.
The test system of data set [4] is loser mice (mice in a depressive state). As to the kind of experiment: Morris water maze test with mice in a depressive state (loser mice). The class given is in vivo, mouse. To be noted: loser C57BL/6 mice. The method, then: The active ingredient of the agents of the present invention has antidepressive action. Antidepressive action as SSRI may be measured by a method described in a published document (Exp Anim, 59(2), 191-197, 2010). Specifically, first, a Morris water maze test is conducted for 8 days using mice.
The active ingredient of the agents of the present invention has learning motivation improving action. The Morris water maze test has been reported as a method for measuring spatial memory and learning (Learn. Motiv. 12, 239-260 (1981)). In this test, the time required to reach an escape platform (escape latency) is used as a parameter for evaluation, because mice will remember their surrounding scenery and swim in a pool filled with water to try to find and reach the escape platform, which is a goal, with their memory as a guide. Since mice used in a main test are chosen from those which were subjected to the Morris water maze test for 8 days and could not reach the escape platform within […], a reduction in the time required to reach the escape platform can be regarded as an improvement in learning motivation.
Antidepressive action was measured in accordance with a published document (Exp Anim, 59(2), 191-197, 2010). […]

A short description of data set [5]: Chromosome aberration test.
Data set [6] deals with acetylcholine in the hippocampus. As to the kind of experiment: Concentration of acetylcholine in the hippocampus of rats by microdialysis. The class given is in vivo, rat. As to conditions: 200 mg/kg oral once. An excerpt:
It is considered that the hippocampus region of the brain, in which a cholinergic neuron is known to be involved, has a function related to learning and memory. Since cholinergic neuron is impaired in degenerative disease with symptoms such as reduced learning and memory, an increase in the concentration of acetylcholine in the hippocampus will improve the symptoms such as reduced learning and memory. The concentration of acetylcholine in the rat hippocampus was increased about 2.5-fold, as measured by microdialysis, by the active ingredient of the agents of the present invention.
A dialysis probe was embedded in the hippocampus of each rat, and measurement was conducted as in Example 1. 2,5-Piperazinedione,3,6-bis(phenylmethyl)-,(3S,6S) was suspended in 0.5% CMC-Na, and 200 mg/kg was orally administered once. The amount of acetylcholine in 15 μl of perfusion liquid collected immediately before the […] oral administration and every 30 minutes after the oral administration was quantitatively determined by HPLC-ECD. The results obtained within the period from 1 hour before the oral administration to 3 hours after the oral administration are shown in FIG. 3, where the time immediately before the oral administration of the test sample is set to 0 minute. […]

The subject of data set [7] is serotonin in the prefrontal region. Put plainly: Concentration of serotonin in the prefrontal region of rats by microdialysis. The class given is in vivo, rat. The method, then:
The active ingredient of the agents of the present invention has the effect of increasing the concentration of serotonin in the synaptic cleft via inhibitory activity on SERT binding.
Male SD rats which were 10 to 12 weeks of age were used. The concentration of serotonin in the prefrontal region of each rat was measured in accordance with a published document (Kehr J., and Yoshitake T. (2006) Monitoring brain chemical signals by microdialysis. In: Encyclopedia of Sensors, Vol. 6. (Eds. C. A. Grimes, E. C. Dickey and M. V. Pishko) American Scientific Publishers, USA. 287-312) by microdialysis. Specifically, a dialysis probe was implanted in the prefrontal region of each rat under isoflurane anesthesia. Five days after the implantation surgery, artificial cerebrospinal fluid (148 mM of NaCl, 4 mM of KCl, 0.8 mM of MgCl2, 1.4 mM of CaCl2, 1.2 mM of Na2HPO4, 0.3 mM of NaH2PO4, pH 7.2)) was perfused at the flow rate of 1 μl/min under ambulatory conditions without anesthesia. 2,5-Piperazinedione,3,6-bis(phenylmethyl)-,(3S,6S) was suspended in 0.5% sodium carboxymethylcellulose (CMC-Na), and 2 mg/kg, 20 mg/kg, and 200 mg/kg were orally administered for 14 consecutive days. The amount of […] in 15 μl of perfusion liquid collected immediately before the final oral administration and every 30 minutes after the oral administration was quantitatively determined by HPLC-ECD. The results obtained within the period from 1 hour before the oral administration to 3 hours after the oral administration are shown in FIG. 1, where the time immediately before the oral administration of the test sample is set to 0 minute.

Where [8] appears, read: listed as active ingredient of the agents of the present invention.

“Also recorded” adds a separate entry of the source. Some results are limits rather than exact numbers.

For the compound `O=C1N[C@@H](Cc2ccccc2)C(=O)N[C@H]1Cc1ccccc1` [2,5-piperazinedione,3,6-bis(phenylmethyl)-,(3S,6S)], the “percentage of correct choices” value in data set [1] is on record as “improved significantly”; in data set [1] (setting [8]), “significantly improved”. The IC50 at AChE turned out to be 3.4 µM. Further, the “toxicity in single-dose acute toxicity test” value in the data set with mice [2] is “no toxicity”. In the data set on mice [3], the “mutagenicity in mice micronucleus test” value was “no mutagenicity”. This compound also yielded a no-observable-effect level in the data set with rats of no less than 10 mg/kg/day. Further, the escape latency result in [4] (oral 0.2 mg/kg or more) is on record as “reduced significantly”; in [4] (oral 0.02, 0.2, 2 and 20 mg/kg, dose dependence), “dose-dependent, significant reduction; also recorded: reduced dose-dependently”. In addition, in data set [5], the “mutagenicity in chromosome aberration test” value is “no mutagenicity”. The “increase of concentration of acetylcholine in the hippocampus” value is given as 2.5 fold in [6] and “about 2.5 fold” in data set [6] (setting [8]). The “mutagenicity in Ames test” value in “Ames test” is “no mutagenicity”. For the same compound, the “concentration of serotonin in the prefrontal region” value in data set [7] (male SD rats, 20 mg/kg oral, 14 consecutive days) is “increased significantly”; in data set [7] (male SD rats, 200 mg/kg oral, 14 consecutive days), “increased significantly”; in data set [7] (normal rats, oral for 2 weeks, across doses) it was “increased dose-dependently and significantly”.
